Measured values published in patent publication US7939534B2, “Certain chemical entities, compositions, and methods” (Cytokinetics, Inc., priority 2006, dated 2011).
Several values for one entry are separate records, joined by “and”; a condition that tells them apart may be missing. Equal values may be shown once.

What follows are molecules tested against T1, chicken gizzard smooth muscle myosin subfragment-1 chemically crosslinked to either cardiac or skeletal actin (Gallus gallus, UniProt P10587) (assay: Dose dependent smooth muscle myosin ATPase modulation (pyruvate kinase/horseradish peroxidase/pyruvate oxidase-coupled ATPase assay)). Details: read-out: IC50 Arithmetic Mean.
T1 construct: chicken gizzard smooth muscle myosin subfragment-1; from tissue; host or cells: chicken gizzard
Assay type: biochemical
Protocol: In Vitro Model of Dose Dependent Smooth Muscle Myosin Atpase Modulation
Screening assays were performed using a pyruvate kinase and lactate dehydrogenase-coupled ATPase assay containing the following reagents: Potassium PIPES (50 mM ), MgCl2 (3 mM ), KCl (100 mM ), ATP (0.15 mM ), DTT (1 mM ), BSA (0.1 mg/ml), NADH (0.5 mM ), PEP (1.5 mM ), pyruvate kinase (4 U/ml), lactate dehydrogenase (8 U/ml), and antifoam (50 ppm) (concentrations expressed are final assay concentrations). The pH was adjusted to 6.80 at 22° C. by addition of potassium hydroxide. Lead optimization assays were performed with a more sensitive pyruvate kinase/horseradish peroxidase/pyruvate oxidase-coupled ATPase assay containing the following reagents: Potassium PIPES (12 mM ), MgCl2 (2 mM ), KCl (100 mM ), ATP (0.15 mM ), BSA (0.05 mg/ml), potassium phosphate (2 mM ), amplex red (0.1 mM ), PEP (0.1 mM ), pyruvate kinase (4 U/ml), horseradish peroxidase (0.5 U/ml), pyruvate oxidase (0.5 U/ml), and antifoam (50 ppm) (concentrations expressed are final assay concentrations). The pH was adjusted to 7.00 at 22° C. by addition of potassium hydroxide.
The protein components specific to this assay are chicken gizzard smooth muscle myosin subfragment-1 that has been chemically crosslinked to either cardiac or skeletal actin using an excess of 1-Ethyl-3-[3-dimethylaminopropyl]carbodiimide hydrochloride and N-hydroxysuccinimide. The exact concentration of the crosslinked smooth muscle myosin in the assay is determined empirically, by titration to achieve a desired rate of ATP hydrolysis. The concentration varies between protein preparations due to variations in the fraction of active molecules in each preparation.
Compound dose response assays are performed by first preparing a dilution series of test compound, each with an assay mixture containing potassium PIPES, MgCl2, KCl, ATP, BSA, potassium phosphate, amplex red, PEP, crosslinked smooth muscle actomyosin (subfragment-1), antifoam, and water. The assay is started by adding an equal volume of solution containing potassium Pipes, MgCl2, KCl, BSA, potassium phosphate, pyruvate kinase, horseradish peroxidase, pyruvate oxidase, antifoam, and water. ATP hydrolysis is monitored by measuring the fluorescence of amplex red (excitation at 480 nm, emission at 615 nm). The resulting dose response curve is fit by the 4 parameter equation y=Bottom+((Top−Bottom)/(1+((IC50/X)^Hill))). The IC50 is defined as the concentration at which ATPase activity is midway between the top and bottom of the dose response curve.
`CNC(=O)CNC(=O)c1ccc(N2CCC(F)C2)nc1NCCc1cccc(F)c1` (stereo in doubt) [Compound 93, 2-[(6-((3S)-3-fluoropyrrolidinyl)-2-{[2-(3-fluorophenyl)ethyl]amino}(3-pyridyl))carbonylamino]-N-methylacetamide] was tested, and the IC50 was 1.06 µM.
For `O=C(NCc1cccnc1)c1ccc(N2CCCC(O)C2)nc1NCCc1cccc(F)c1` (stereo in doubt) [Compound 117, (6-((3S)-3-hydroxypiperidyl)-2-{[2-(3-fluorophenyl)ethyl]amino}(3-pyridyl))-N-(3-pyridylmethyl)carboxamide], the IC50 was 0.515 µM.
`CNC(=O)CNC(=O)c1ccc(N2CC[C@@H](O)C2)nc1NCCc1cccc(F)c1` [2-[(6-((3R)-3-hydroxypyrrolidinyl)-2-{[2-(3-fluorophenyl)ethyl]amino}(3-pyridyl))carbonylamino]-N-methylacetamide] was tested, and the IC50 was 3.44 µM and 3.69 µM.
`O=C(NCc1cccnc1)c1ccc(N2CCCCC2)nc1NCCc1cccc(F)c1` [Compound 0, (2-{[2-(3-fluorophenyl)ethyl]amino}-6-piperidyl(3-pyridyl))-N-(3-pyridylmethyl)carboxamide] gave an IC50 of 0.371 µM.
`CC(=O)NC[C@@H]1CCN(c2ccc(C(=O)NCc3cccnc3)c(NCCc3cccc(F)c3)n2)C1` [Compound 1, N-{[(3S)-1-(6-{[2-(3-fluorophenyl)ethyl]amino}-5-[N-(3-pyridylmethyl)carbamoyl](2-pyridyl))pyrrolidin-3-yl]methyl}acetamide] gave an IC50 of 3.77 µM.
With `NC(=O)CNC(=O)c1ccc(N2CC[C@@H](O)C2)nc1NCCc1cccc(F)c1` [Compound 2, (6-((3R)-3-hydroxypyrrolidinyl)-2-{[2-(3-fluorophenyl)ethyl]amino}(3-pyridyl))-N-(carbamoylmethyl)carboxamide] the IC50 was 11.4 µM.
`CN(C)C(=O)c1ccc(N2CC[C@@H](O)C2)nc1NCCc1cccc(F)c1` [Compound 4, (6-((3R)-3-hydroxypyrrolidinyl)-2-{[2-(3-fluorophenyl)ethyl]amino}(3-pyridyl))-N,N-dimethylcarboxamide] showed an IC50 of 71.3 µM.
With `NC(=O)CNC(=O)c1ccc(N2CCCC2)nc1NCCc1cccc(F)c1` [Compound 5, N-(carbamoylmethyl)(2-{[2-(3-fluorophenyl)ethyl]amino}-6-pyrrolidinyl(3-pyridyl))carboxamide] the IC50 was 1.46 µM.
`O=C(NCc1cccnc1)c1ccc(N2CC[C@@H](CO)C2)nc1NCCc1cccc(F)c1` [Compound 6, (6-[(3R)-3-(hydroxymethyl)pyrrolidinyl]-2-{[2-(3-fluorophenyl)ethyl]amino}(3-pyridyl))-N-(3-pyridylmethyl)carboxamide] gave an IC50 of 0.311 µM.
Work on `CNC[C@@H]1CCN(c2ccc(C(=O)NCc3cccnc3)c(NCCc3cccc(F)c3)n2)C1` [Compound 7, (6-{(3S)-3-[(methylamino)methyl]pyrrolidinyl}-2-{[2-(3-fluorophenyl)ethyl]amino}(3-pyridyl))-N-(3-pyridylmethyl)carboxamide] yielded an IC50 of 64.8 µM.
`CC(=O)N(C)C[C@@H]1CCN(c2ccc(C(=O)NCc3cccnc3)c(NCCc3cccc(F)c3)n2)C1` [Compound 8, N-{[(3R)-1-(6-{[2-(3-fluorophenyl)ethyl]amino}-5-[N-(3-pyridylmethyl)carbamoyl](2-pyridyl))pyrrolidin-3-yl]methyl}-N-methylacetamide] showed an IC50 of 47.6 µM.
In the case of `CN(C)C[C@@H]1CCN(c2ccc(C(=O)NCc3cccnc3)c(NCCc3cccc(F)c3)n2)C1` [Compound 9, (6-{(3S)-3-[(dimethylamino)methyl]pyrrolidinyl}-2-{[2-(3-fluorophenyl)ethyl]amino}(3-pyridyl))-N-(3-pyridylmethyl)carboxamide], the IC50 is reported as 75.1 µM.
`O=C(NCc1cccnc1)c1ccc(N2CCCCC2=O)nc1NCCc1cccc(F)c1` [Compound 10, (2-{[2-(3-fluorophenyl)ethyl]amino}-6-(2-oxopiperidyl)(3-pyridyl))-N-(3-pyridylmethyl)carboxamide] showed an IC50 of 5.4 µM.
Work on `NC[C@@H]1CCN(c2ccc(C(=O)NCc3cccnc3)c(NCCc3cccc(F)c3)n2)C1` [Compound 11, (6-[(3S)-3-(aminomethyl)pyrrolidinyl]-2-{[2-(3-fluorophenyl)ethyl]amino}(3-pyridyl))-N-(3-pyridylmethyl)carboxamide] yielded an IC50 of 16.9 µM.
With `Nc1ccc(CNC(=O)c2ccc(N3CCCC3)nc2NCCc2cccc(F)c2)cn1` [Compound 12, N-[(6-amino(3-pyridyl))methyl](2-{[2-(3-fluorophenyl)ethyl]amino}-6-pyrrolidinyl(3-pyridyl))carboxamide] the IC50 was 0.243 µM.
With `NC(=O)CCNC(=O)c1ccc(N2CCCC2)nc1NCCc1cccc(F)c1` [Compound 13, N-(2-carbamoylethyl)(2-{[2-(3-fluorophenyl)ethyl]amino}-6-pyrrolidinyl(3-pyridyl))carboxamide] the IC50 was 1.59 µM.
Molecule `O=C(NCc1cccnc1)c1ccc(N2CC[C@@H](O)C2)nc1NCCc1cccc(F)c1` [Compound 14, (6-((3R)-3-hydroxypyrrolidinyl)-2-{[2-(3-fluorophenyl)ethyl]amino}(3-pyridyl))-N-(3-pyridylmethyl)carboxamide] has an IC50 of 0.533 µM.
`O=C(NCc1cccnc1)c1ccc(N2CCCC2=O)nc1NCCc1cccc(F)c1` [Compound 15, (2-{[2-(3-fluorophenyl)ethyl]amino}-6-(2-oxopyrrolidinyl)(3-pyridyl))-N-(3-pyridylmethyl)carboxamide] showed an IC50 of 4.56 µM.
`O=C(NCc1cccnc1)c1ccc(N2CCCC2)nc1NCCc1cccc(F)c1` [Compound 16, (2-{[2-(3-fluorophenyl)ethyl]amino}-6-pyrrolidinyl(3-pyridyl))-N-(3-pyridylmethyl)carboxamide] showed an IC50 of 0.131 µM.
With `NC(=O)CCNC(=O)c1ccc(N2CC[C@@H](O)C2)nc1NCCc1cccc(F)c1` [Compound 17, (6-((3R)-3-hydroxypyrrolidinyl)-2-{[2-(3-fluorophenyl)ethyl]amino}(3-pyridyl))-N-(2-carbamoylethyl)carboxamide] the IC50 was 15.9 µM.
`O=C(NCc1cccnc1)c1ccc(N2CC[C@H](O)C2)nc1NCCc1cccc(F)c1` [Compound 18, (6-((3S)-3-hydroxypyrrolidinyl)-2-{[2-(3-fluorophenyl)ethyl]amino}(3-pyridyl))-N-(3-pyridylmethyl)carboxamide] showed an IC50 of 1.02 µM.
In the case of `O=C(NCc1cccnc1)c1ccc(N2CCC(CO)CC2)nc1NCCc1cccc(F)c1` [Compound 19, (2-{[2-(3-fluorophenyl)ethyl]amino}-6-[4-(hydroxymethyl)piperidyl](3-pyridyl))-N-(3-pyridylmethyl)carboxamide], the IC50 is reported as 0.382 µM.
`O=C(NCc1cccnc1)c1ccc(N2CC(O)CCC2=O)nc1NCCc1cccc(F)c1` (centres unmarked) [Compound 20, (2-{[2-(3-fluorophenyl)ethyl]amino}-6-(5-hydroxy-2-oxopiperidyl)(3-pyridyl))-N-(3-pyridylmethyl)carboxamide] was tested, and the IC50 was 29.7 µM.
`O=C1CN(c2ccc(C(=O)NCc3cccnc3)c(NCCc3cccc(F)c3)n2)CCN1` [Compound 21, (2-{[2-(3-fluorophenyl)ethyl]amino}-6-(3-oxopiperazinyl)(3-pyridyl))-N-(3-pyridylmethyl)carboxamide] showed an IC50 of 6.97 µM.
Molecule `CN1CCN(c2ccc(C(=O)NCc3cccnc3)c(NCCc3cccc(F)c3)n2)CC1` [Compound 22, (2-{[2-(3-fluorophenyl)ethyl]amino}-6-(4-methylpiperazinyl)(3-pyridyl))-N-(3-pyridylmethyl)carboxamide] has an IC50 of 59.9 µM.
In the case of `O=C(NCc1cccnc1)c1ccc(N2CCC(CCO)CC2)nc1NCCc1cccc(F)c1` [Compound 23, (2-{[2-(3-fluorophenyl)ethyl]amino}-6-[4-(2-hydroxyethyl)piperidyl](3-pyridyl))-N-(3-pyridylmethyl)carboxamide], the IC50 is reported as 0.471 µM.
`CC(C)(C)OC(=O)N1CCN(c2ccc(C(=O)NCc3cccnc3)c(NCCc3cccc(F)c3)n2)C(=O)C1` [Compound 24, tert-butyl 4-(6-{[2-(3-fluorophenyl)ethyl]amino}-5-[N-(3-pyridylmethyl)carbamoyl](2-pyridyl))-3-oxopiperazinecarboxylate] was tested, and the IC50 was 59.8 µM.
`O=C(NCc1cccnc1)c1ccc(N2CCNCC2=O)nc1NCCc1cccc(F)c1` [Compound 25, (2-{[2-(3-fluorophenyl)ethyl]amino}-6-(2-oxopiperazinyl)(3-pyridyl))-N-(3-pyridylmethyl)carboxamide] showed an IC50 of 70.8 µM.
`CN(C)C(=O)c1ccc(N2CCCCC2=O)nc1NCCc1cccc(F)c1` [Compound 26, (2-{[2-(3-fluorophenyl)ethyl]amino}-6-(2-oxopiperidyl)(3-pyridyl))-N,N-dimethylcarboxamide] showed an IC50 of 53.4 µM.
